Test results from US20140329863A1 (priority 2011, published 2014).
“And” between values parts separate entries of the source, which are not always exact repeats. Identical values can stand only once.

Tested on: PrP^Sc in dividing ScN2a-cl3 cells
Experiment: not given
Type: cell-based, mouse
Conditions: read-out: Antiprion activity EC50; thienopyridine analogs

Compound	EC50
Nc1c(C(=O)Nc2cc(F)ccc2F)sc2nc(-c3cccs3)ccc12 [IND-0024581]	2060 nM
COc1ccc(-c2ccc3c(N)c(C(=O)Nc4ccc5c(c4)OCCO5)sc3n2)cc1 [IND-0035833]	> 10000 nM
COc1ccc(-c2ccc3c(N)c(C(=O)Nc4ccc(F)cc4)sc3n2)cc1 [IND-0035860]	57 nM and 59 nM
COc1ccc(-c2ccc3c(N)c(C(=O)Nc4ccc(C(C)=O)cc4)sc3n2)cc1 [IND-0037769]	97 nM
COc1ccc(-c2ccc3c(N)c(C(=O)NCCc4ccc(OC)c(OC)c4)sc3n2)cc1 [IND-0037771]	419 nM
COc1ccc(CNC(=O)c2sc3nc(-c4ccc(OC)cc4)ccc3c2N)cc1 [IND-0040541]	> 10000 nM
Nc1c(C(=O)Nc2ccc(F)cc2)sc2nc(-c3ccc4c(c3)OCO4)ccc12 [IND-0042063]	613 nM
COc1cc(NC(=O)c2sc3nc(-c4cccs4)ccc3c2N)cc(OC)c1OC [IND-0042103]	> 10000 nM
COc1ccc(-c2ccc3c(N)c(C(=O)Nc4ccc(F)cc4)sc3n2)cc1OC [IND-0044746]	227 nM

Same assay, conditions: read-out: EC50 (nM): ELISA; dividing ScN2a-cl3 cells

Compound	EC50 [nM]
c1ccc2cc(-c3cn4ccsc4n3)ccc2c1 [IND-009413]	6020
CCc1ccc(-c2cn3cc(C)sc3n2)cc1 [IND-0009416]	1780
CCc1ccc(-c2cn3ccccc3n2)cc1 [IND-0009417]	9160

Same assay, conditions: read-out: Potency (nM) ELISA (EC50); PrP^Sc ELISA, dividing ScN2a-cl3 cells

Compound	EC50 [nM]
c1ccc2cc(-c3cn4ccsc4n3)ccc2c1 [IND-009413]	6020
CCc1ccc(-c2cn3cc(C)sc3n2)cc1 [IND-0009416]	1780
CCc1ccc(-c2cn3ccccc3n2)cc1 [IND-0009417]	9160
O=C(Nc1nc(-c2ccc3ccccc3c2)cs1)C1CC1 [IND-0030883]	913

Tested on: PrP^Sc in ScN2a-cl3 cells
Experiment: not given
Type: cell-based, mouse
Conditions: read-out: EC50 (nM): Western; Western immunoblots, ScN2a-cl3 cells

Compound	EC50 [nM]
c1ccc2cc(-c3cn4ccsc4n3)ccc2c1 [IND-009413]	2490
CCc1ccc(-c2cn3cc(C)sc3n2)cc1 [IND-0009416]	517
CCc1ccc(-c2cn3ccccc3n2)cc1 [IND-0009417]	4720
CC(=O)c1ccc(N2CCN(Cc3cccnc3)CC2)cc1 [IND-0018629]	886

Same assay, conditions: read-out: Potency (nM) Western (EC50); Western immunoblots, dividing ScN2a-cl3 cells

Compound	EC50 [nM]
c1ccc2cc(-c3cn4ccsc4n3)ccc2c1 [IND-009413]	2490
CCc1ccc(-c2cn3cc(C)sc3n2)cc1 [IND-0009416]	517
CCc1ccc(-c2cn3ccccc3n2)cc1 [IND-0009417]	4720
CC(=O)c1ccc(N2CCN(Cc3cccnc3)CC2)cc1 [IND-0018629]	886
O=C(Nc1nc(-c2ccc3ccccc3c2)cs1)C1CC1 [IND-0030883]	570

Tested on: not listed separately
Experiment: in vitro
Conditions: mouse

Compound	CC50 [µM]
c1ccc2cc(-c3cn4ccsc4n3)ccc2c1 [IND-009413]	> 10
CCc1ccc(-c2cn3cc(C)sc3n2)cc1 [IND-0009416]	> 10
CCc1ccc(-c2cn3ccccc3n2)cc1 [IND-0009417]	> 10
CC(=O)c1ccc(N2CCN(Cc3cccnc3)CC2)cc1 [IND-0018629]	> 10
Nc1c(C(=O)Nc2cc(F)ccc2F)sc2nc(-c3cccs3)ccc12 [IND-0024581]	> 10
O=C(Nc1nc(-c2ccc3ccccc3c2)cs1)C1CC1 [IND-0030883]	> 10
COc1ccc(-c2ccc3c(N)c(C(=O)Nc4ccc5c(c4)OCCO5)sc3n2)cc1 [IND-0035833]	> 10
COc1ccc(-c2ccc3c(N)c(C(=O)Nc4ccc(F)cc4)sc3n2)cc1 [IND-0035860]	> 10
COc1ccc(-c2ccc3c(N)c(C(=O)Nc4ccc(C(C)=O)cc4)sc3n2)cc1 [IND-0037769]	> 10
COc1ccc(-c2ccc3c(N)c(C(=O)NCCc4ccc(OC)c(OC)c4)sc3n2)cc1 [IND-0037771]	> 10
COc1ccc(CNC(=O)c2sc3nc(-c4ccc(OC)cc4)ccc3c2N)cc1 [IND-0040541]	> 10
Nc1c(C(=O)Nc2ccc(F)cc2)sc2nc(-c3ccc4c(c3)OCO4)ccc12 [IND-0042063]	> 10
COc1cc(NC(=O)c2sc3nc(-c4cccs4)ccc3c2N)cc(OC)c1OC [IND-0042103]	> 10
COc1ccc(-c2ccc3c(N)c(C(=O)Nc4ccc(F)cc4)sc3n2)cc1OC [IND-0044746]	> 10

Tested on: N2a-cl3 cells
Experiment: not given
Conditions: mouse

Compound	EC50 (nM): Calcein (LC50 values from calcein assays)
c1ccc2cc(-c3cn4ccsc4n3)ccc2c1 [IND-009413]	MW: 250.2 EC50 (nM): ELISA: 6015 Calcein: >10,000 Western: 2490
CCc1ccc(-c2cn3cc(C)sc3n2)cc1 [IND-0009416]	MW: 242.3 EC50 (nM): ELISA: 1776 Calcein: >10,000 Western: 517
CCc1ccc(-c2cn3ccccc3n2)cc1 [IND-0009417]	MW: 222.3 EC50 (nM): ELISA: 9158 Calcein: >10,000 Western: 4715
CC(=O)c1ccc(N2CCN(Cc3cccnc3)CC2)cc1 [IND-0018629]	MW: 295.4 EC50 (nM): ELISA: 2943 Calcein: >10,000 Western: 886
